In patent US11926641B2, “Phosphonamidate butyrophilin ligands” (UNIVERSITY OF IOWA RESEARCH FOUNDATION, priority 2018, dated 2024):
Where two headings read alike, the source gives them in different places.

Columns and labels:
human Vγ9Vδ2 T cells = assay: Expansion of Vγ9Vδ2 T cells from peripheral blood mononuclear cells; type: cell-based; conditions: ratio of expansion EC50 values
Description: Expansion of Vγ9Vδ2 T cells. […] Negative controls contained cells with interleukin 2 in the absence of test compounds. […] All experiments were performed at least three times using cells from at least two different donors.

[1] = Stability in 50% pooled human plasma in PBS (LCMS); type: in vitro ADME
Description: Stability studies. Pooled human plasma was diluted to 50% with phosphate buffered saline at pH 7.5. Test compounds were added at a final concentration of 100 μM in a volume of 100 μL. Compounds were incubated for various times as indicated in the text, then extracted with 300 μL of LCMS grade acetonitrile and vigorous mixing. Insoluble debris was pelleted by centrifugation at 10,000 rcf for 2 minutes. 10 μL of the extract was evaluated by LCMS with a Waters Synapt G2-Si Mass Spectrometer in positive mode using a gradient of water and acetonitrile and a C18 column. The gradient started at 25% acetonitrile then increased to 80% acetonitrile over 9 minutes and held there for 1 minute before re-equilibration. […] The integrated values of these peaks were compared to those of t=0 minutes in plasma for each test compound and expressed as a fraction of the initial compound that was remaining at a given time point.

in vitro = type: cell-based; conditions: human
Description: Cell viability. Viability assays were performed using K562 cells with various concentrations of test compounds. K562 cells (0.5×10^4 cells in 100 μL of RPMI media) were distributed into each well of a 96-well plate. Phosphonamidates were added for 72 hours, during the last 2 hours the cell-QB reagent was added, following which signals were quantified with a fluorescence plate reader. Viable cells were expressed as a percentage of untreated control cells after subtraction of a media-only blank.

Vγ9Vδ2 T cells = assay: ELISA for interferon γ: Vγ9Vδ2 T cells mixed with compound-loaded K562 cells; type: cell-based; conditions: Homo sapiens; K562 cells loaded for 4 hours with test compound; 3:1 effector:target; 20 hours; read-out: EC50 [μM] (95% CI), interferon γ production by Vγ9Vδ2 T cells
Description: ELISA for interferon γ. Interferon γ was measured by ELISA as previously described and according to manufacturer's directions (see Kilcollins, A. M., et al., J. Immunol. 2016, 197, 419-428; and Shippy, R. R., et al., J Med. Chem. 2017, 60, 2373-2382. Briefly, K562 cells were treated with test compounds for 4 hours, washed, then mixed with V79Vδ2 T cells that had been purified by negative selection. Each well contained a 3:1 effector: target ratio in 200 μL. After 20 hours, the concentration of interferon γ in the supernatant was determined. Data for representative compounds of the invention is shown in Table 2 (see FIG. 4).

[2] = cited from earlier work
[3] = 72 hour, read-out: IC50 [μM], cytotoxicity against K562 cells

IC50 at 72 h (in vitro) [µM]	Structure (SMILES)	Fold difference vs cmpd 10 (human Vγ9Vδ2 T cells)	Fold difference vs cmpd 11 (human Vγ9Vδ2 T cells)	t1/2 [1] [h]	IC50 at 72 h (in vitro; [3]) [µM]	EC50 (Vγ9Vδ2 T cells) [µM]	IC50 (in vitro) [nM]	stability in plasma [2]
	C/C(=C\CCP(=O)(NCC(=O)OC(C)C)Oc1ccc2ccccc2c1)CO (centres unmarked) [Compound 9, Isopropyl 2-[[[(E)-5-hydroxy-4-methyl-pent-3-enyl]-(2-naphthyloxy)phosphoryl]amino]acetate]	4900	6.6	>24	> 100	0.21		
	COC(=O)CNP(=O)(CC/C=C(\C)CO)Oc1cccc2ccccc12 (centres unmarked) [Compound 4, Methyl 2-[[[(E)-5-hydroxy-4-methyl-pent-3-enyl]-(1-naphthyloxy)phosphoryl]amino]acetate]	9100	12	>24	40	0.13		
> 100	Oc1cccc2ccccc12 [Compound 1-naphthol, 1-naphthol, reference compound]							
	CCOC(=O)CNP(=O)(CC/C=C(\C)CO)Oc1ccc2ccccc2c1 (centres unmarked) [Compound 8, Ethyl 2-[[[(E)-5-hydroxy-4-methyl-pent-3-enyl]-(2-naphthyloxy)phosphoryl]amino]acetate]	7500	10	>24	28	0.093		
	Oc1ccccc1 [Phenol, reference compound]						> 100000	
	CCOC(=O)CNP(=O)(CC/C=C(\C)CO)Oc1ccccc1 (centres unmarked) [Compound 2, Ethyl 2-[[[(E)-5-hydroxy-4-methyl-pent-3-enyl]-phenoxy-phosphoryl]amino]acetate]				> 100	0.17		
	C/C(=C\CCP(=O)(NCC(=O)OC(C)C)Oc1ccccc1)CO (centres unmarked) [Compound 3, Isopropyl 2-[[[(E)-5-hydroxy-4-methyl-pent-3-enyl]-phenoxy-phosphoryl]amino]acetate]	3600	4.9	>24	23	0.74		
	COC(=O)CNP(=O)(CC/C=C(\C)CO)Oc1ccc2ccccc2c1 (centres unmarked) [Compound 7, Methyl 2-[[[(E)-5-hydroxy-4-methyl-pent-3-enyl]-(2-naphthyloxy)phosphoryl]amino]acetate]	6900	9.3	>24	> 100	0.12		
	C/C(=C\CCP(=O)(OCOC(=O)C(C)(C)C)OCOC(=O)C(C)(C)C)CO [Compound 104, reference compound]			0.14				
> 100	Oc1ccc2ccccc2c1 [Compound 2-naphthol, 2-naphthol, reference compound]							
	COC(=O)CNP(=O)(CC/C=C(\C)CO)Oc1ccccc1 (centres unmarked) [Compound 1, Methyl 2-[[[(E)-5-hydroxy-4-methyl-pent-3-enyl]-phenoxy-phosphoryl]amino]acetate]	2700	3.6	>24	> 100	0.46		
	C/C(=C\CCP(=O)(NCC(=O)OC(C)C)Oc1cccc2ccccc12)CO (centres unmarked) [Compound 6, Isopropyl 2-[[[(E)-5-hydroxy-4-methyl-pent-3-enyl]-(1-naphthyloxy)phosphoryl]amino]acetate]	12000	16	>24	> 100	0.29		
	C/C(=C\COP(=O)(O)OP(=O)(O)O)CO [HMBPP]							not stable in plasma
	CCOC(=O)CNP(=O)(CC/C=C(\C)CO)Oc1cccc2ccccc12 (centres unmarked) [Compound 5, Ethyl 2-[[[(E)-5-hydroxy-4-methyl-pent-3-enyl]-(1-naphthyloxy)phosphoryl]amino]acetate]	11000	15	>24	24	0.062		
